Key:
[1] = OLINDA dosimetry to adult male from mouse biodistribution
PSMA = target: T1, PSMA (Homo sapiens, UniProt Q04609); details: clinical trials; cited from earlier work
T1 construct: This has been leveraged in clinical trials using the radiotherapeutic 117Lu-PSMA-617; host or cells: tumours of prostate cancer patients

[2] = Biodistribution in a syngeneic model of prostate cancer with a RM1-PGLS tumor; details: C57BL/6J mice

T1 sequence (Q04609 whole entry): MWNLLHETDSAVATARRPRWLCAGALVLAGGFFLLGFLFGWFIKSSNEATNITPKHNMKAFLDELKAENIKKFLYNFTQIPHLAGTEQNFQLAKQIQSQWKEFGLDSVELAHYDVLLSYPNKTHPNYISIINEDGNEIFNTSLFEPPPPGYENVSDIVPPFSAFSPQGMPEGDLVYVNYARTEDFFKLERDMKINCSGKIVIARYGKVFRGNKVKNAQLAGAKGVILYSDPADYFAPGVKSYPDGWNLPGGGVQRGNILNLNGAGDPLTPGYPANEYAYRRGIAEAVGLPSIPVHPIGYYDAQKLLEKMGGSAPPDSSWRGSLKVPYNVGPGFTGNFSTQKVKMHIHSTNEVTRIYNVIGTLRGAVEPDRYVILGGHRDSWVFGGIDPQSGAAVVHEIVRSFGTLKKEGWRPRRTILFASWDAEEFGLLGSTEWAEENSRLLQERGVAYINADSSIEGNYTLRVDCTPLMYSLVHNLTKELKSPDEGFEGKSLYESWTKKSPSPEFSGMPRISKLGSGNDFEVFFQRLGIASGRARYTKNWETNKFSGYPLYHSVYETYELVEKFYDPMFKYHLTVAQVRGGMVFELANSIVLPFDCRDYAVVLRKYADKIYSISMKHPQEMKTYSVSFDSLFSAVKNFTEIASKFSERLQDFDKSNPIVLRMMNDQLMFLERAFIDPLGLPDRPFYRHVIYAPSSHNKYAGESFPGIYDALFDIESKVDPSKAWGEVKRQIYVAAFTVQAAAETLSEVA

## O=C([O-])CN1CCN(CC(=O)[O-])CCN(CC(=O)NCC2CCC(C(=O)N[C@@H](Cc3ccc4ccccc4c3)C(=O)NCCCC[C@H](NC(=O)N[C@@H](CCC(=O)O)C(=O)O)C(=O)O)CC2)CCN(CC(=O)[O-])CC1.[177Lu+3] (stereo partly shown) [^177Lu-PSMA-617]
[1]; Target Organ Brain
  OLINDA dosimetry to Adult Male, Brain: 0.00 μSv/MBq
[1]; Target Organ Esophagus
  OLINDA dosimetry to Adult Male, Esophagus: 0.25 μSv/MBq
[1]; Target Organ Eyes
  OLINDA dosimetry to Adult Male, Eyes: 0.00 μSv/MBq
[1]; Target Organ Gallbladder Wall
  OLINDA dosimetry to Adult Male, Gallbladder Wall: 0.93 μSv/MBq
[1]; Target Organ Heart Wall
  OLINDA dosimetry to Adult Male, Heart Wall: 1.57 μSv/MBq
[1]; Target Organ Kidneys
  OLINDA dosimetry to Adult Male, Kidneys: 54.70 μSv/MBq
[1]; Target Organ Left Colon
  OLINDA dosimetry to Adult Male, Left Colon: 0.18 μSv/MBq
[1]; Target Organ Liver
  OLINDA dosimetry to Adult Male, Liver: 27.80 μSv/MBq
[1]; Target Organ Lungs
  OLINDA dosimetry to Adult Male, Lungs: 2.43 μSv/MBq
[1]; Target Organ Osteogenic Cells
  OLINDA dosimetry to Adult Male, Osteogenic Cells: 0.83 μSv/MBq
[1]; Target Organ Pancreas
  OLINDA dosimetry to Adult Male, Pancreas: 0.32 μSv/MBq
[1]; Target Organ Prostate
  OLINDA dosimetry to Adult Male, Prostate: 0.10 μSv/MBq
[1]; Target Organ Rectum
  OLINDA dosimetry to Adult Male, Rectum: 0.07 μSv/MBq
[1]; Target Organ Red Marrow
  OLINDA dosimetry to Adult Male, Red Marrow: 0.10 μSv/MBq
[1]; Target Organ Right Colon
  OLINDA dosimetry to Adult Male, Right Colon: 0.27 μSv/MBq
[1]; Target Organ Salivary Glands
  OLINDA dosimetry to Adult Male, Salivary Glands: 0.01 μSv/MBq
[1]; Target Organ Small Intestine
  OLINDA dosimetry to Adult Male, Small Intestine: 1.54 μSv/MBq
[1]; Target Organ Spleen
  OLINDA dosimetry to Adult Male, Spleen: 0.25 μSv/MBq
[1]; Target Organ Stomach Wall
  OLINDA dosimetry to Adult Male, Stomach Wall: 0.23 μSv/MBq
[1]; Target Organ Thymus
  OLINDA dosimetry to Adult Male, Thymus: 0.11 μSv/MBq
[1]; Target Organ Thyroid
  OLINDA dosimetry to Adult Male, Thyroid: 0.05 μSv/MBq
[1]; Target Organ Total Body
  OLINDA dosimetry to Adult Male, Today Body: 1.13 μSv/MBq
[1]; Target Organ Tumor
  OLINDA dosimetry to Adult Male, Tumor: 145.00 μSv/MBq
[1]; Target Organ Urinary Bladder Wall
  OLINDA dosimetry to Adult Male, Urinary Bladder Wall: 7.66 μSv/MBq
PSMA
  Non-responders among patients: 30%
[2]; 2 h
  Biodistribution Blood (% ID/g ± SD): 0.03 ± 0.02 % ID/g
  Biodistribution Bone (% ID/g ± SD): 0.05 ± 0.05 % ID/g
  Biodistribution Heart (% ID/g ± SD): 0.03 ± 0.01 % ID/g
  Biodistribution Kidney (% ID/g ± SD): 1.39 ± 0.48 % ID/g
  Biodistribution Liver (% ID/g ± SD): 0.17 ± 0.12 % ID/g
  Biodistribution Muscle (% ID/g ± SD): 0.05 ± 0.05 % ID/g
  Biodistribution RM1-PGLS tumor (% ID/g ± SD): 0.80 ± 0.18 % ID/g
  Biodistribution Sm Int (% ID/g ± SD): 0.03 ± 0.01 % ID/g
  Biodistribution Spleen (% ID/g ± SD): 0.08 ± 0.03 % ID/g
[2]; 24 h
  Biodistribution Blood (% ID/g ± SD): 0.00 ± 0.00 % ID/g
  Biodistribution Bone (% ID/g ± SD): 0.01 ± 0.01 % ID/g
  Biodistribution Heart (% ID/g ± SD): 0.01 ± 0.00 % ID/g
  Biodistribution Kidney (% ID/g ± SD): 0.09 ± 0.07 % ID/g
  Biodistribution Liver (% ID/g ± SD): 0.02 ± 0.01 % ID/g
  Biodistribution Muscle (% ID/g ± SD): 0.01 ± 0.01 % ID/g
  Biodistribution RM1-PGLS tumor (% ID/g ± SD): 0.25 ± 0.09 % ID/g
  Biodistribution Sm Int (% ID/g ± SD): 0.01 ± 0.01 % ID/g
  Biodistribution Spleen (% ID/g ± SD): 0.02 ± 0.01 % ID/g
[2]; 72 h
  Biodistribution Blood (% ID/g ± SD): 0.01 ± 0.01 % ID/g
  Biodistribution Bone (% ID/g ± SD): 0.01 ± 0.01 % ID/g
  Biodistribution Heart (% ID/g ± SD): 0.01 ± 0.00 % ID/g
  Biodistribution Kidney (% ID/g ± SD): 0.04 ± 0.01 % ID/g
  Biodistribution Liver (% ID/g ± SD): 0.02 ± 0.01 % ID/g
  Biodistribution Muscle (% ID/g ± SD): 0.01 ± 0.00 % ID/g
  Biodistribution RM1-PGLS tumor (% ID/g ± SD): 0.18 ± 0.06 % ID/g
  Biodistribution Sm Int (% ID/g ± SD): 0.02 ± 0.01 % ID/g
  Biodistribution Spleen (% ID/g ± SD): 0.02 ± 0.01 % ID/g

Reference: patent publication US20250090695A1, “IMMUNOSTIMULANT-CYTOTOXIC CONJUGATE COMPOSITION AND METHODS FOR CANCER TREATMENT” (The Research Foundation for the State University of New York, priority 2022, published 2025)
